Measurements published in the CheMixHub ionic liquid set.

Test: xn = mol fraction of the nth substance listed
Conditions: 101 kPa

CC[n+]1ccn(C)c1.O=S(=O)([O-])O + O=C([O-])CC(O)(CC(=O)[O-])C(=O)[O-].[Li+].[Li+].[Li+] + O
viscosity [mPa·s]
Conditions	293.15 K	298.15 K	303.15 K	308.15 K	313.15 K
x2 = 0, x1 = 0.0006645	1.023	0.93	0.823	0.75	0.674
x2 = 0, x1 = 0.0007293	1.036	0.943	0.825	0.749	0.689
x2 = 0, x1 = 0.0009254	1.064	0.943	0.844	0.763	0.683

CC[n+]1ccn(C)c1.O=S(=O)([O-])O + O=C([O-])CC(O)(CC(=O)[O-])C(=O)[O-].[NH4+].[NH4+].[NH4+] + O
viscosity [mPa·s]
Conditions	293.15 K	298.15 K	303.15 K	308.15 K	313.15 K
x2 = 0, x1 = 0.0006645	1.023	0.93	0.823	0.75	0.674
x2 = 0, x1 = 0.0007293	1.036	0.943	0.825	0.749	0.689
x2 = 0, x1 = 0.0009254	1.064	0.943	0.844	0.763	0.683
x2 = 0.0007784, x1 = 0.0007287	1.08	0.994	0.875	0.801	0.743
x2 = 0.0007964, x1 = 0.0009246	1.11	0.994	0.895	0.815	0.737
x2 = 0.000825, x1 = 0.0006639	1.07	0.983	0.877	0.803	0.727
x2 = 0.001056, x1 = 0.0007285	1.096	1.005	0.886	0.813	0.756
x2 = 0.001057, x1 = 0.0006638	1.083	0.992	0.886	0.813	0.737
x2 = 0.001176, x1 = 0.0009243	1.133	1.008	0.911	0.832	0.755
x2 = 0.001406, x1 = 0.0009241	1.146	1.017	0.919	0.841	0.765
x2 = 0.001588, x1 = 0.0007281	1.126	1.024	0.906	0.834	0.779
x2 = 0.001621, x1 = 0.0006634	1.115	1.012	0.906	0.835	0.761
x2 = 0.001717, x1 = 0.0006634	1.12	1.015	0.91	0.839	0.764
x2 = 0.001746, x1 = 0.000728	1.135	1.029	0.911	0.84	0.786
x2 = 0.001804, x1 = 0.0009237	1.169	1.03	0.934	0.857	0.782
x2 = 0.002295, x1 = 0.0009233	1.198	1.047	0.951	0.876	0.803
x2 = 0.002321, x1 = 0.0007276	1.168	1.048	0.931	0.861	0.809
x2 = 0.002323, x1 = 0.000663	1.155	1.034	0.93	0.86	0.787
x2 = 0.002686, x1 = 0.0007273	1.189	1.059	0.943	0.874	0.824
x2 = 0.002704, x1 = 0.0006627	1.176	1.046	0.942	0.873	0.801
x2 = 0.002709, x1 = 0.0009229	1.223	1.06	0.965	0.891	0.82

CCCC[P+](CCCC)(CCCC)CCCC.[O-]c1ccccn1 + O=C=O
Conditions	viscosity [mPa·s]
293 K, x2 = 0.5475	474
